Source: paper PMC12298876, “Angiotensin-Converting Enzyme Inhibitory Activity of Selected Phenolic Acids, Flavonoids, Their O-Glucosides, and Low-Molecular-Weight Phenolic Metabolites in Relation to Their Oxidation Potentials” (Metabolites, 2025)
“And” between values parts separate entries of the source, which are not always exact repeats. Equal entries are not always repeated. Where two headings read alike, the source gives them in different places. Marks after values point to notes of the source that are not given here.

Columns and labels:
[1] = target: T1, Angiotensin-converting enzymes (ACE) from porcine kidneys (EC 3.4.15.1) (Sus scrofa, UniProt F1RRW5); assay: biochemical; conditions: for ACE inhibitory activity lower than that of reduced glutathione (GSH): ratio to the IC50 of GSH; for lower IC50 in relation to the respective aglycone / higher value of IC50 as compared to the IC50 of the respective aglycon: ACE inhibition; for lower IC50 in relation to the respective aglycone: glycoside vs aglycon; for higher value of IC50 as compared to the IC50 of the respective aglycon: glucoside vs aglycon
T1 construct: Angiotensin-converting enzymes (ACE) from porcine kidneys (EC 3.4.15.1) were purchased from Sigma-Aldrich; purchased Sigma-Aldrich (St. Louis, MO, USA); host or cells: porcine kidneys (tissue-derived enzyme)
T1 sequence (F1RRW5 34-1309): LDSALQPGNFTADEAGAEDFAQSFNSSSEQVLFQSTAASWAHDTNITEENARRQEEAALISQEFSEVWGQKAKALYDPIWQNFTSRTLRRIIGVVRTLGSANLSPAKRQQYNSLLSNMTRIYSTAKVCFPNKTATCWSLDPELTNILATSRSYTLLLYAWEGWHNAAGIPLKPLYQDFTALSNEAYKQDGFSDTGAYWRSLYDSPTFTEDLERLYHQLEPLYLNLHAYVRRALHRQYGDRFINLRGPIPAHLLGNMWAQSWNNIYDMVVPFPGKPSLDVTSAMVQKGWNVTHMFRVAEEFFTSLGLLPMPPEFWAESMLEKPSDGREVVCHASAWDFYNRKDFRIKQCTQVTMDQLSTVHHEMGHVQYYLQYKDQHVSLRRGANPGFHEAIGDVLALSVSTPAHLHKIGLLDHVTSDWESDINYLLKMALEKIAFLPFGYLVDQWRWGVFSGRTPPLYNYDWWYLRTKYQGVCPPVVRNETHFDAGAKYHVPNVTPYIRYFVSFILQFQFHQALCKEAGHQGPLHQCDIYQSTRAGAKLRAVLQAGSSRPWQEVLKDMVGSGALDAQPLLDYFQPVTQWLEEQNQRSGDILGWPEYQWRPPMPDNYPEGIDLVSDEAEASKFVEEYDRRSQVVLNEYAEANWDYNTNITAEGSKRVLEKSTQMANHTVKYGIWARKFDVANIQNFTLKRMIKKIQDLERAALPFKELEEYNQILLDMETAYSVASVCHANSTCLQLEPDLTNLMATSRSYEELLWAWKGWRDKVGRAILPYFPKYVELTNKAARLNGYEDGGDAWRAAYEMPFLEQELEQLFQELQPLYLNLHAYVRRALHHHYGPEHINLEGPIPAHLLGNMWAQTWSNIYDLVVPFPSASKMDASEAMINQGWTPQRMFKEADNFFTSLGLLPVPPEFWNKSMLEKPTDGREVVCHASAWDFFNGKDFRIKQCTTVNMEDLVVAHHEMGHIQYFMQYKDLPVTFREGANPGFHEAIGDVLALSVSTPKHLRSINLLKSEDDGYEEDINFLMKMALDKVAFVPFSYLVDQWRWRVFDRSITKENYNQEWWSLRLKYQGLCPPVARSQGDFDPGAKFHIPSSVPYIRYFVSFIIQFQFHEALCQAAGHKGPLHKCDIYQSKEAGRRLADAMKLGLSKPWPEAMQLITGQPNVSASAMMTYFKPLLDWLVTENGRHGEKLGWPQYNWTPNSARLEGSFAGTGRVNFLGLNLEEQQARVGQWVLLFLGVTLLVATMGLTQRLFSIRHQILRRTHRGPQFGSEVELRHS
Description: Angiotensin-converting enzymes (ACE) from porcine kidneys (EC 3.4.15.1) were purchased from Sigma-Aldrich (St. Louis, MO, USA). A three-tris-base buffer was as follows: buffer A: 300 mM Tris-base buffer (pH 8.3) with 2 mM ZnCl2; buffer B: 150 mM Tris-base buffer (pH 8,3); and buffer C: 150 mM Tris-base buffer (pH 8.3) with […] NaCl. The substrate o-aminobenzoylglycyl-p-nitorphenylalanylproline (Abz-Gly-Phe(NO2)-Pro) was obtained from BACHEM (Bubendorf, Switzerland). Standards of phenolic acids, flavonoids, glucosides, and low-molecular-weight phenolic metabolites were obtained from Sigma-Aldrich (St. Louis, MO, USA) and Extrasynthese (Genay, France). Water was purified using the Mili-Q system (Milipore, Bedford, MA, USA).
Stock solutions at 1 mM of selected phenolic acids, flavonoids, their O-glucosides, and low-molecular-weight phenolic metabolites were prepared in 80% methanol. The concentration was confirmed by a UV measurement according to Franke et al.. A wide range of concentrations of each compound was prepared by serial dilutions in deionized water to determine the IC50 value. […] The ACE inhibitory activity was obtained from three repetitions (n = 3) for each concentration.
Angiotensin-converting enzyme (ACE) activity inhibitory assay was performed according to the method of Sentandreu and Toldra. The procedure was based on the hydrolysis of the internally quenched substrate o-aminobenzoylglycyl-p-nitorphenylalanylproline (Abz-Gly-Phe(NO2)-Pro) by the reaction of ACE. The fluorescence generated by the liberation of the product (the o-aminobenzoylglycine group) was read in a microplate multiscan fluorometer. The production of fluorescence was inhibited by the presence of functional compounds with an ACE inhibitory effect. The fluorescence was measured immediately after mixing (0 min) and then after 30 min of reaction at an excitation of 365 nm and an emission of 405 nm. To calculate the % of inhibition of ACE, the following equation was used:Relative ACE activity% = 100 − (ΔRFUsample × 100/ΔRFUnegative control), where ΔRFU = RFU at time 30 – RFU at time 0.

[2] = First anodic oxidation potential by differential pulse voltammetry (DPV); assay type: physicochemical; conditions: for Anodic Peak Potential Epa: DPV, first anodic peak, 0.25 mM standard in 0.1 M Britton-Robinson buffer pH 6.0 in 80% methanol, glassy carbon vs Ag/AgCl, 100 mV/s; for antioxidant power class based on the first oxidation potential: classes according to Blasco et al. [47]
Description: A potentiostat/galvanostat G 750 (Gamry Instruments, Warminster, USA) was used for voltametric experiments. A conventional three-electrode system: a 3 mm diameter glassy carbon working electrode (BAS MF-2012), an Ag/AgCl electrode as a reference electrode, and a platinum as counter electrode, was used in the study. Differential pulse voltametric experiments were performed with phenolic acids and flavonoids prepared in a 1:1 (v/v) mixture of 500 µM standard solution and […] Britton-Robinson (B-R) buffer (pH 6.0 in 80% methanol), which also served as a supporting electrolyte. The voltametric experiments were performed at room temperature using an electrochemical cell (volume 200 µL), to which the analyzed standard solution, mixed previously with the buffer solution, was introduced. The differential pulse voltammograms were acquired in the range of −100 to 1300 mV at a scanning rate of 100 mV/s. Before use, the surface of the glassy carbon electrode was carefully polished with 0.05 µm alumina paste, ultrasonically rinsed in deionized water, and then washed with methanol. This procedure was repeated after each cycle. For test purposes, the first anodic oxidation potential was recorded (mV).

[3] = porcine kidney ACE, substrate Abz-Gly-Phe(NO2)-Pro, fluorescence after 30 min, mean ± SD, read-out: IC50 Value (ACE inhibitory activity)
[4] = low-molecular-weight phenolic metabolites
[5] = IC50 Value (ACE inhibitory activity), porcine kidney ACE, substrate Abz-Gly-Phe(NO2)-Pro, fluorescence after 30 min, mean ± SD

## O=C(O)CCc1ccccc1O [2-HPPA, 3-(2-hydroxyphenyl)propionic acid]
[1]; [3]
  IC50: 0.9329 ± 0.00642 mM
[2]
  Anodic Peak Potential Epa: 781 ± 9 ^d mV
[2]; [4]
  antioxidant power class based on the first oxidation potential: moderate antioxidant power (moderate antioxidant power (0.3 V < Epa < 0.8 V))

## O=C(O)CCc1ccc(O)c(O)c1 [3,4-DHPPA, 3-(3,4-dihydroxyphenyl)propionic acid]
[1]; [3]
  IC50: 0.612 ± 0.00651 mM
[2]
  Anodic Peak Potential Epa: 218 ± 3 ^h mV

## O=C(O)CCc1ccc(O)cc1O [3-2,4-DHPPA, 3-(2,4-dihydroxyphenyl)propionic acid]
[1]; [3]
  IC50: 0.745 ± 0.00833 mM
[2]
  Anodic Peak Potential Epa: 659 ± 8 ^e mV
[2]; [4]
  antioxidant power class based on the first oxidation potential: moderate antioxidant power (moderate antioxidant power (0.3 V < Epa < 0.8 V))

## O=C(O)Cc1cccc(O)c1 [3-HPAA, 3-hydroxyphenylacetic acid]
[1]; [3]
  IC50: 0.679 ± 0.0077 mM
[2]
  Anodic Peak Potential Epa: 883 ± 11 ^b mV
[2]; [4]
  antioxidant power class based on the first oxidation potential: weak antioxidant power (weak antioxidant power (Epa ˃ 0.8 V))

## O=C(O)c1ccc(O)cc1 [4-HBA, 4-hydroxybenzoic acid]
[1]; [3]
  IC50: 0.788 ± 0.0111 mM
[2]
  Anodic Peak Potential Epa: 961 ± 11 ^a mV

## O=C(O)Cc1ccc(O)cc1 [4-HPAA, 4-hydroxyphenylacetic acid]
[1]; [3]
  IC50: 1.391 ± 0.0102 mM
[2]
  Anodic Peak Potential Epa: 815 ± 12 ^c mV
[2]; [4]
  antioxidant power class based on the first oxidation potential: weak antioxidant power (weak antioxidant power (Epa ˃ 0.8 V))

## O=C(O)CCc1ccc(O)cc1 [4-HPPA, 3-(4-hydroxyphenyl)propionic acid]
[1]; [3]
  IC50: 0.49 mM and 0.491 mM
[1]
  ACE inhibitory activity lower than that of reduced glutathione (GSH): ~12 fold
[2]
  Anodic Peak Potential Epa: 664 ± 8 ^e mV
[2]; [4]
  antioxidant power class based on the first oxidation potential: moderate antioxidant power (moderate antioxidant power (0.3 V < Epa < 0.8 V))

## O=c1cc(-c2ccc(O)cc2)oc2cc(OC3O[C@H](CO)[C@@H](O)[C@H](O)[C@H]3O)cc(O)c12 (stereo partly drawn) [Apigenin-7-O-glucoside]
[1]
  lower IC50 in relation to the respective aglycone: 35%
[1]; [3]
  IC50: 0.218 ± 0.00253 mM
[2]
  Anodic Peak Potential Epa: 841 ± 6 ^ab mV

## O=C(/C=C/c1ccc(O)c(O)c1)O[C@@H]1C[C@](O)(C(=O)O)C[C@@H](O)[C@H]1O [Chlorogenic acid]
[1]; [3]
  IC50: 0.134 mM
[1]
  ACE inhibitory activity lower than that of reduced glutathione (GSH): threefold
[2]
  Anodic Peak Potential Epa: 443 ± 9 ^d mV

## OCC1OC(Oc2cc3c(O)cc(O)cc3[o+]c2-c2ccc(O)c(O)c2)C(O)C(O)C1O (stereo not drawn) [Cyanidin-3-O-glucoside]
[1]
  higher value of IC50 as compared to the IC50 of the respective aglycon: 5%
[1]; [3]
  IC50: 0.185 ± 0.00258 mM
[2]
  Anodic Peak Potential Epa: 373 ± 4 ^g mV

## Oc1cc(O)c2cc(O)c(-c3ccc(O)c(O)c3)[o+]c2c1 [Cyanidin]
[1]; [3]
  IC50: 0.176 ± 0.00238 mM
[2]
  Anodic Peak Potential Epa: 295 ± 3 ^h mV
[2]; flavonoids and glucosides
  antioxidant power class based on the first oxidation potential: high antioxidant power (high antioxidant power (Ep < 0.3 V))

## OCC1OC(Oc2cc3c(O)cc(O)cc3[o+]c2-c2cc(O)c(O)c(O)c2)C(O)C(O)C1O (stereo not drawn) [Delphinidin-3-O-glucoside]
[1]
  lower IC50 in relation to the respective aglycone: 16%
[1]; [3]
  IC50: 0.2088 ± 0.00133 mM
[2]
  Anodic Peak Potential Epa: 453 ± 4 ^e mV

## Oc1cc(O)c2cc(O)c(-c3cc(O)c(O)c(O)c3)[o+]c2c1 [Delphinidin]
[1]; [5]
  IC50: 0.2477 ± 0.00185 mM
[2]
  Anodic Peak Potential Epa: 259 ± 3 ^i mV

## COc1cc(/C=C/C(=O)O)ccc1O [Ferulic acid]
[1]; [3]
  IC50: 0.98 ± 0.0136 mM
[1]; values of this study restated in mM in the discussion, read-out: IC50 (ACE inhibition)
  IC50: 0.98 mM
[2]
  Anodic Peak Potential Epa: 611 ± 6 ^c mV

## N[C@@H](CCC(=O)N[C@@H](CS)C(=O)NCC(=O)O)C(=O)O [GSH, reduced glutathione, reference compound]
[1]; [3]
  IC50: 0.0417 mM

## O=C(O)c1cc(O)ccc1O [Gentisic acid]
[1]; IC50 (ACE inhibition), values of this study restated in mM in the discussion
  IC50: 0.834 mM
[1]; [5]
  IC50: 0.834 ± 0.00926 mM
[2]
  Anodic Peak Potential Epa: 622 ± 8 ^c mV

## COc1cc(CC(=O)O)ccc1O [HVA, 2-(3-methoxy-4-hydroxyphenyl)acetic acid]
[1]; [5]
  IC50: 1.46 mM
[1]
  ACE inhibitory activity lower than that of reduced glutathione (GSH): about 35 fold
[2]
  Anodic Peak Potential Epa: 643 ± 5 ^e mV
[2]; [4]
  antioxidant power class based on the first oxidation potential: moderate antioxidant power (moderate antioxidant power (0.3 V < Epa < 0.8 V))

## O=c1c(OC2OC(CO)C(O)C(O)C2O)c(-c2ccc(O)c(O)c2)oc2cc(O)cc(O)c12 [Hyperoside, quercetin-3-O-D-galactoside]
[1]
  higher value of IC50 as compared to the IC50 of the respective aglycon: 30%
[1]; [5]
  IC50: 0.1572 ± 0.00145 mM
[2]
  Anodic Peak Potential Epa: 307 ± 3 ^h mV

## O=c1c(OC2OC(CO)C(O)C(O)C2O)c(-c2ccc(O)cc2)oc2cc(O)cc(O)c12 (stereo not drawn) [Kaempferol-3-O-glucoside]
[1]
  lower IC50 in relation to the respective aglycone: 16%
[1]; [5]
  IC50: 0.11 ± 0.00356 mM
[2]
  Anodic Peak Potential Epa: 359 ± 3 ^fg mV
